Source: patent US20020045780A1, “Biologically active spermidine analogues, pharmaceutical compositions and methods of treatment” (priority 1997, published 2002)
Like-named read-outs stand apart in the source and are kept apart here.

Assays:
[1] = test system: polyamine transport apparatus; assay: Competitive uptake determination: inhibition of [3H]spermidine transport into L1210 cells; type: cell-based, murine; conditions: analogue inhibition of spermidine transport
How it was run: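 Analogues competed with [3H]spermidine for uptake into L1210 cells. Values are Ki, derived from Lineweaver–Burk analysis as competitive inhibition with respect to spermidine.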

[2] = test system: L1210 cells; assay: Polyamine pool analysis in L1210 cells; type: cell-based, murine; conditions: Mus musculus, L1210, 48 h, % of untreated control
How it was run: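 Cells were exposed to each analogue for 48 h at two concentrations. Washed pellets were extracted with 0.6 N HClO4 (1 ml/10^7 cells), and polyamines were quantified by HPLC of dansyl derivatives.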

[3] = test system: L1210 cells; assay: L1210 growth inhibition, IC50 determination; type: cell-based, murine; conditions: Mus musculus
Protocol: Murine L1210 leukemia cells (ATCC CCL 219) were maintained in logarithmic growth in RPMI-1640 medium containing 10% fetal calf serum or a semi-synthetic equivalent, NuSerum, 2% HEPES-MOPS buffer and 1 mM aminoguanidine.

[4] = test system: laboratory animals; conditions: early studies in laboratory animals; cited from earlier work
[5] = test system: S-adenosylmethionine decarboxylase (AdoMetDC); assay: AdoMetDC activity in treated L1210 cells; type: cell-based, murine; conditions: L1210, 1 μM at 6 hours
How it was run: (§1)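 L1210 cells treated with triamines; ODC activity measured at 4 h and AdoMetDC at 6 h as ^14CO2 released from [^14C]-carboxyl-labeled L-ornithine (ODC) or S-adenosyl-L-methionine (AdoMetDC). Untreated cells served as controls and DEHSPM-treated cells as positive controls.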

[6] = test system: spermidine/spermine acetyltransferase (SSAT); assay: SSAT activity in treated L1210 cells; type: cell-based, murine; conditions: L1210, 10 μM at 48 hours (triamine analogues)
Excerpt: Spermidine/spermine N^1-acetyltransferase activity was based on quantitation of [^14C]-N^1-acetylspermidine formed by acetylation of SPD with [^14C] acetyl coenzyme A according to the method of Libby et al [Biochem. Pharmacol., Vol. 38, supra]. Cells treated with DENSPM were positive controls.

[7] = test system: ornithine decarboxylase (ODC); assay: ODC activity in treated L1210 cells; type: cell-based, murine; conditions: L1210, 1 μM at 4 hours
How it was run: as §1

IC50 ([3]; L1210, 48 h, L1210, 48 hour exposure, read-out: IC50 48 hour): > 100 µM | IC50 ([3]; L1210, 96 h, L1210, 96 hour exposure, read-out: IC50 96 hour): > 100 µM
SMILES: NCCCCNCCCN [SPD, spermidine]
Ki [1]: 2.2 µM | activity at 100 µM ([2]; read-out: Put): 0% | activity at 100 µM ([2]; read-out: Spd): 117% | activity at 100 µM ([2]; read-out: Spm): 118% | activity at 500 µM ([2]; read-out: Put): 0% | activity at 500 µM ([2]; read-out: Spd): 145% | activity at 500 µM ([2]; read-out: Spm): 108% | Nephrotoxicity relative to spermine [4]: approximately one-twentieth as nephrotoxic as spermine | AdoMetDC activity, percent of untreated control [5]: 43% of untreated control | SSAT activity, percent of untreated control [6]: 160% of untreated control | ODC activity, percent of untreated control [7]: 16% of untreated control
